The source of these data is patent publication EP1161417B1, “METHODS AND COMPOSITIONS FOR TREATING LEUKEMIA” (HSC Research and Development Limited Partnership, priority 1999, dated 2000).

One series concerns the target T1, Jak2 kinase (Homo sapiens, UniProt O60674).
T1 construct: Jak2 kinase was immunoprecipitated from a 1% Triton-X100 lysate of 10x10^6 G2 cells; endogenous in cells; host or cells: G2 pre-B leukemia cell line
Nature of the series: in vitro kinase assay on Jak2 immunoprecipitated from G2 cell lysate. The note with it: scanning autoradiographs of the kinase assays. The format is biochemical. The procedure: Compounds chosen on the basis of their ability to inhibit the growth (colony formation) of the pre-B leukemia cell line G2 were tested for inhibition of Jak2 kinase.
Jak2 kinase was immunoprecipitated from a 1% Triton-X100 lysate of 10x10^6 G2 cells. An in vitro kinase assay was performed on the immunoprecipitated Jak2 in the presence or absence of varying concentrations of the compounds AG 1977, AG 1978, AG 2009 and AG 2010.
Stock solutions of 100mM tyrphostin were made in 100% DMSO and further dilutions made in 10% DMSO. Control kinase assays carried out in the presence of DMSO concentrations of 5-30% alone were unaffected by its presence.
Initial experiments were done with tyrphostin concentrations of 0.1, 1.0 and 10µM. These concentrations had no affect on the kinase activity of Jak2. […]

The next series has as its system G2 ALL cells. Briefly: clonogenic assay, inhibition of colony formation of ALL cell line G2. The class given is cell-based, human. The procedure: Inhibition of colony formation was studied by methods described previously (Kamel-Reid et al., (1992), Leukemia, v. 6, pp. 8-17; Meydan et al., (1996), Nature, v. 379, pp. 645-648).
ALL cell lines A1 (at 8x10^5 cells/ml), C1 (at 4x10^4 cells/ml) and G2 (at 1.15x10^6 cells/ml) were plated in 1 ml volumes, in the absence of exogenous growth factors, into 35 mm petri dishes (Nunc, Gibco) containing alpha MEM (Gibco) plus 10% FCS (Cansera Rexdale, Ont.) in 0.9% (vol/vol) methylcellulose (Fluka, Switzerland). Cultures were set up at 37°C with 5% CO2 in a humidified atmosphere and 10 uM of a selected tyrphostin was added. Colonies consisting of more than 20 cells were counted at 12 days (A1), 5 days (C1) and 14 days (G2) using an inverted microscope. Similar results were obtained with A1 and C1.
Various concentrations of tyrphostins were tested for inhibition of ALL cells in the clonogenic assay described in Example 2. Compounds AG 1977. 1978, 2007, 2008, 2009 and 2010 were tested against ALL cell lines A1, C1 and G2 in doses ranging from nanomolar to micromolar values.

A further series has as its system normal bone marrow cells. Nature of the series: modified CFU-GEMM clonogenic assay on normal bone marrow cells. The format is cell-based, human. The note with it: 40µM. The procedure: Compounds showing inhibition of ALL colony formation were examined for their effect on normal bone marrow cells using a modified CFU-GEMM clonogenic assay.
The assay was performed according to Fauser and Messner (1978), Blood, v. 52, pp. 1243-8, and Messner and Fausser (1980), Blut, v. 41, pp. 327-333, with some variations. In brief, heparinized bone marrow cells were layered over Percoll (Pharmacia Fine Chemical. Piscataway N.J.) at a density of 1.077 gm/ml and centrifuged at 400 g at 4°C for 10 min. to remove neutrophils and RBCs. The fractionated bone marrow cells at 2x10^5 cells/ml were cultured in IMDM (OCI, Toronto) containing 0.9% (vol/vol) methylcellulose supplemented with 30% FCS (Cansera Rexdale, Ont.) or normal human plasma, a cocktail of cytokines consisting of G-CSF (10 ng/ml. Amgen), IL-3 (40 U/ml, Immunex), MGF (50 ng/ml, Immunex), Erythropoietin (2u/ml, Epprex) or TPO (10 ng/ml, Amgen) and 5x10^-5 2-mercaptoethanol. The culture mixture was plated in 1 ml volumes into 35 mm petri dishes and incubated at 37°C with 5% CO2 in a humidified atmosphere with concentrations of tyrphostin up to 40 µm.

SMILES strings stand for the structures.

T1 sequence (O60674 whole entry): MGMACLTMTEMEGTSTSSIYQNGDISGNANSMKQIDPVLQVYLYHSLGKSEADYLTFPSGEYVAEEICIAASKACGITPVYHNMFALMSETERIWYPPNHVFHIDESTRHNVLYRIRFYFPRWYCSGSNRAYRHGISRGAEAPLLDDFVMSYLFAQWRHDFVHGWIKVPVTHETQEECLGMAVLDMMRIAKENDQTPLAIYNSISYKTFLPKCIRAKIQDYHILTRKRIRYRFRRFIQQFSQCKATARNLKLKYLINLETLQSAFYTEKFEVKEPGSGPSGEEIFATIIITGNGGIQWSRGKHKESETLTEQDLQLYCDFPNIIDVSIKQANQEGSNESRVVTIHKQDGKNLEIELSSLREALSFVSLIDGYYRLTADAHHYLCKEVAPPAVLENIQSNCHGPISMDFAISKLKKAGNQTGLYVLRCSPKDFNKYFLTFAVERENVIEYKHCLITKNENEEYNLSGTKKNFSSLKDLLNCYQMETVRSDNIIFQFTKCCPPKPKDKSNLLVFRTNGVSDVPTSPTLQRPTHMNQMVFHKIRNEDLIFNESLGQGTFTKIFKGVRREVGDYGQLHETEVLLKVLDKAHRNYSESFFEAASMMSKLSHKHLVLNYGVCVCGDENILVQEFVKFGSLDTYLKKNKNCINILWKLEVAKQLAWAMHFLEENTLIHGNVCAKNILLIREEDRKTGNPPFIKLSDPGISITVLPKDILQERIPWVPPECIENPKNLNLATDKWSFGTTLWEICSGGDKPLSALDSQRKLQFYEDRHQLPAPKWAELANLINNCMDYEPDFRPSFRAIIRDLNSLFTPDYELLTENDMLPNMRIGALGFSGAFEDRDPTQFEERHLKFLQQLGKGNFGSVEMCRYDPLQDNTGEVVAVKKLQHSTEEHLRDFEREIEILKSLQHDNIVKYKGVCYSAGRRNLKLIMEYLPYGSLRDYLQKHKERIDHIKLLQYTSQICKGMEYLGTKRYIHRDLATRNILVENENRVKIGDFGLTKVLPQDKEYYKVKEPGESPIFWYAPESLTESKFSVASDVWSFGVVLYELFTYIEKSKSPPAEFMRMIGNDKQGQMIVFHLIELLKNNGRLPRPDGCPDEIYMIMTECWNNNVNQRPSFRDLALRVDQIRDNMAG

For the compound `N#C/C(=C\c1cc(O)c(O)c(CSCCc2ccccc2)c1)C(=O)NCc1ccccc1` [AG 2009, N-benzyl-2-cyano-3-(3',4'-dihydroxy-5'-(methylenethioethylphenyl)phenyl) acrylamide], the “%inhibition of kinase activity” value was determined as 0% on Jak2 kinase (5µM tyrphostin), 0% on Jak2 kinase (25µM tyrphostin) and 8% at Jak2 kinase (50µM tyrphostin). Also, the inhibition at 0.016 µM in the series on G2 ALL cells (Homo sapiens, dose of 16nM, G2 cells) is more than 50%. For the same compound, the clonogenic inhibition result in the series on G2 ALL cells (against G2 cells, dose responsive (Fig. 13), compared with AG 1977, 1978, 2007, 2008, 2010) is “most potent clonogenic inhibition”. Moreover, in the series on G2 ALL cells (survival curve of normal BM and G2 colonies (Fig. 14)), the differential therapeutic index result is given as “greater than 2 logs”.

Consider `N#C/C(=C\c1cc(O)c(O)c(CSCc2ccccc2)c1)C(=O)NCc1ccccc1` [AG 1977, N-benzyl-2-cyano-3-(3',4'-dihydroxy-5'-methylenethiobenzylphenyl) acrylamide], for which the “%inhibition of kinase activity” value came out at 23% on Jak2 kinase (5µM tyrphostin), 14% at Jak2 kinase (25µM tyrphostin) and 15% at Jak2 kinase (50µM tyrphostin).

Regarding `N#C/C(=C\c1cc(O)c(O)c(CSCCCc2ccccc2)c1)C(=O)NCc1ccccc1` [AG 2010, N-benzyl-2-cyano-3-(3',4'-dihydroxy-5'-(methylenethiopropylphenyl)phenyl) acrylamide], the results for the “%inhibition of kinase activity” value at Jak2 kinase (5µM tyrphostin), at Jak2 kinase (25µM tyrphostin) and on Jak2 kinase (50µM tyrphostin) were 5%, 5% and 39%, respectively. Further, in the series with normal bone marrow cells, the “inhibition of normal bone marrow colonies” value was “significant inhibition”.

For `N#C/C(=C\c1cc(O)c(O)c(CSc2ccccc2)c1)C(=O)NCc1ccccc1` [AG 1978, N-benzyl-2-cyano-3-(3',4-dihydroxy-5'-methylenethiophenylphenyl) acrylamide], the “%inhibition of kinase activity” value on Jak2 kinase (5µM tyrphostin) is reported as 10%; on Jak2 kinase (25µM tyrphostin) it was 13%; at Jak2 kinase (50µM tyrphostin), 46%.

As a reminder, the inhibition is how much of the control response was suppressed.
